Assay results taken from ChEMBL document CHEMBL1130170, “Orally active trifluoromethyl ketone inhibitors of human leukocyte elastase” (J Med Chem, 1997).
Where a SMILES comes first, the peptide text is derived from it. The star is where a group is joined. CF3 = FC(F)(F)*; Moc = COC(=O)*

Columns and labels:
[1] = Intravenous integrated area under the concentration vs time curve, for compound in dog plasma; assay type: ADME, organism-based, Canis lupus familiaris
[2] = Intravenous integrated area under the concentration vs time curve, for compound in hamster plasma; assay type: ADME, organism-based; details: cricetinae
[3] = Maximum concentration of the unchanged compound in dog plasma, recorded in the period 0-6 hr post dose.; assay type: ADME, organism-based, Canis lupus familiaris
[4] = Maximum concentration of the unchanged compound in hamster plasma, recorded in the period 0-6 hr post dose.; assay type: ADME, organism-based; details: cricetinae
[5] = Maximum concentration of the unchanged compound in rat plasma, recorded in the period 0-6 hr post dose.; assay type: ADME, organism-based
[6] = Bioavailability in hamster; assay type: ADME, organism-based, Cricetulus griseus; details: chinese hamster, in vivo
[7] = Bioavailability in rat; assay type: ADME, organism-based; details: in vivo
[8] = Time of maximum concentration of compound in dog plasma.; assay type: ADME, organism-based, Canis lupus familiaris
[9] = Time of maximum concentration of compound in hamster plasma.; assay type: ADME, organism-based; details: cricetinae
[10] = Time of maximum concentration of compound in rat plasma.; assay type: ADME, organism-based
[11] = Half-life of compound in plasma of dog; assay type: ADME, organism-based, Canis lupus familiaris
[12] = Half-life of compound in plasma of hamster; assay type: ADME, organism-based; details: cricetinae
[13] = Half-life of compound in plasma of rat; assay type: ADME, organism-based
Procathepsin L = Procathepsin L (Bos taurus, UniProt P25975); assay: Binding affinity for bovine spleen cathepsin L; No inhibition at 188 uM (highest concentration tested)
Cricetinae gen. sp. [14] = assay: Effective dose in the Acute Hemarrhagic Assay model after i.v. administration; assay type: functional, Cricetulus griseus; details: iv
Cricetinae gen. sp. [15] = assay: Effective dose in the Acute Hemarrhagic Assay model after oral administration; assay type: functional, Cricetulus griseus
Cricetinae gen. sp. [16] = assay: Percent inhibition of elastase-induced lung damage by 10 mg/kg dosed orally, 30 minutes prior to the instillation of 50 ug of elastase; assay type: functional, Cricetulus griseus
Kallikrein-1 = Kallikrein-1 (Homo sapiens, UniProt P06870); assay: Binding affinity for human urine kallikrein; No inhibition at 188 uM (highest concentration tested)
Monoamine oxidase = molecular target: T1, Monoamine oxidase (Homo sapiens, UniProt P21397+P27338); assay: Binding affinity for human plasma monoamine oxidase; No inhibition at 188 uM (highest concentration tested); assay type: cell-free
T1 sequence (P21397 whole entry): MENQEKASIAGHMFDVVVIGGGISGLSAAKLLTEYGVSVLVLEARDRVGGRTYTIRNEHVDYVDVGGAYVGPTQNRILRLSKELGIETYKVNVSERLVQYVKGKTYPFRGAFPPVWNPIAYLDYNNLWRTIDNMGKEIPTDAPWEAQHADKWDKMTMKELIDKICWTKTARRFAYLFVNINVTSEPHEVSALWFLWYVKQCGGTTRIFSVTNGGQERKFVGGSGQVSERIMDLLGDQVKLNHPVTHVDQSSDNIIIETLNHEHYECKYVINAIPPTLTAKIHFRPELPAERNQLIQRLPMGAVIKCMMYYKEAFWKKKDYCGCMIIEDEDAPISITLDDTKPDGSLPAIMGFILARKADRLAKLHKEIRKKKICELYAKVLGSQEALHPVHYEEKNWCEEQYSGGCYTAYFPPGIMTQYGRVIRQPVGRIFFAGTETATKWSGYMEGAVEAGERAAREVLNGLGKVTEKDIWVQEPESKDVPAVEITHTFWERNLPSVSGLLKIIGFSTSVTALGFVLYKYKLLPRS
T1 sequence (P27338 whole entry): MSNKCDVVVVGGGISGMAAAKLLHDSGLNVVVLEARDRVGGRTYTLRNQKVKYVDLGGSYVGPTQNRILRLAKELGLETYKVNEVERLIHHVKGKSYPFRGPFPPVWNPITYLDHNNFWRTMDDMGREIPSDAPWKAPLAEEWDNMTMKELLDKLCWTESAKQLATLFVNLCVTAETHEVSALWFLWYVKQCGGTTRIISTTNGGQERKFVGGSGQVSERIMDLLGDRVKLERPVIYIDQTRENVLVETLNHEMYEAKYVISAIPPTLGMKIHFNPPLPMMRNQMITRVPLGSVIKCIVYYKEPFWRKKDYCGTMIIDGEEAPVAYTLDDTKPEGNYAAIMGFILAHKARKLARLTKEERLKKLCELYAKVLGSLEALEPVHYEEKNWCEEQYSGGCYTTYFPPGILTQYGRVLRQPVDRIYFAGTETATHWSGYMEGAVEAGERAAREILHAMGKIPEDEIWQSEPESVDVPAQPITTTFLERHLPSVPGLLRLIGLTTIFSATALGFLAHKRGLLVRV

Papain = molecular target: T2, Papain (Carica papaya, UniProt P00784); assay: Binding affinity for papaya papain; No inhibition at 188 uM (highest concentration tested)
T2 sequence (P00784 whole entry): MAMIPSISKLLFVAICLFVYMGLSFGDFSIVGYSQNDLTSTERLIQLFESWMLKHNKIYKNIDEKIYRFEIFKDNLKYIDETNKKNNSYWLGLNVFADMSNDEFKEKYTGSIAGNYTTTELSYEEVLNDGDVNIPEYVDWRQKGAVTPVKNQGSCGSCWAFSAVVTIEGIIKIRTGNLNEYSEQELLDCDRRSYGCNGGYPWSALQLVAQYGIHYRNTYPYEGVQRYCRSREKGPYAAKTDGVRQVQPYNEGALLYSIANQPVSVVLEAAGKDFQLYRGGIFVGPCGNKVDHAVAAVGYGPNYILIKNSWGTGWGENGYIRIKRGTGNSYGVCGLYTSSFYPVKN

Plasma kallikrein = Plasma kallikrein (Homo sapiens, UniProt P03952); assay: Binding affinity for human plasma kallikrein; No inhibition at 188 uM (highest concentration tested); assay type: cell-free
[17] = Intravenous integrated area under the concentration vs time curve, for compound in rat plasma; assay type: ADME, organism-based
Prothrombin = Prothrombin (Homo sapiens, UniProt P00734); assay: Binding affinity for human plasma thrombin; No inhibition at 188 uM (highest concentration tested); assay type: cell-free

Sequence of Plasma kallikrein (P03952 20-390 limits assumed): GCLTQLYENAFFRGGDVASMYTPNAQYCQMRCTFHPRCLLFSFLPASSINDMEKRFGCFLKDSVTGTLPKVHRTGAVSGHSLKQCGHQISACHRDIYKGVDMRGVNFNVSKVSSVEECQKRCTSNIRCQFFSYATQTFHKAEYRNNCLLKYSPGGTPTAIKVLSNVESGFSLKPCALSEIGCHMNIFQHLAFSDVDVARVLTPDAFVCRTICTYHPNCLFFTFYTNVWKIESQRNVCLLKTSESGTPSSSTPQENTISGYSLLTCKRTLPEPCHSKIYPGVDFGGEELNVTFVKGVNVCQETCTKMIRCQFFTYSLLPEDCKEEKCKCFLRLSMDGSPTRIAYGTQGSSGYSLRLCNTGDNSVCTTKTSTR
Sequence of Plasma kallikrein (P03952 391-638 limits assumed): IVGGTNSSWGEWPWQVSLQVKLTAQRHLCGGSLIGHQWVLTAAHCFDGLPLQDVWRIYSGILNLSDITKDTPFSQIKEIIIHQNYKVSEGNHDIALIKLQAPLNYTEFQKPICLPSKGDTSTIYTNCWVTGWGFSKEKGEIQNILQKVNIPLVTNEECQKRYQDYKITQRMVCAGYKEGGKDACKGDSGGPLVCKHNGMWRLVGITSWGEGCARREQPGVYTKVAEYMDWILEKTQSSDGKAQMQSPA
Sequence of Kallikrein-1 (P06870 whole entry): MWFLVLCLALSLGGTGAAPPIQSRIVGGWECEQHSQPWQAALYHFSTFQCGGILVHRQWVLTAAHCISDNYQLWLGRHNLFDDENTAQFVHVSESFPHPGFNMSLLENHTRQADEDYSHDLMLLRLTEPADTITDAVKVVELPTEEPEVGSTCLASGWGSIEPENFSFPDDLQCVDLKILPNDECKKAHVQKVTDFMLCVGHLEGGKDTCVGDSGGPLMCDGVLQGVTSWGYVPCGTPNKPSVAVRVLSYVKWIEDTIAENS
Sequence of Procathepsin L (P25975 whole entry): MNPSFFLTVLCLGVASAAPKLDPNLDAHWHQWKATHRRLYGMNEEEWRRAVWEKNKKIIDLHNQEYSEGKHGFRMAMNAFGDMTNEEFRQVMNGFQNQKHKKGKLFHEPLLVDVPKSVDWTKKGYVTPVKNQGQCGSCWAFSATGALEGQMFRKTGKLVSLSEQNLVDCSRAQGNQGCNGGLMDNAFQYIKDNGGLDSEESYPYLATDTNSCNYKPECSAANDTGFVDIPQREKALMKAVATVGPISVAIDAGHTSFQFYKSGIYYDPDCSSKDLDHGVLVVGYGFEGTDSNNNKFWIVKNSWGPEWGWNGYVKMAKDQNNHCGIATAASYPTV

SMILES	AUC [1] [ng·h/mL]	AUC [2] [ng·h/mL]	Cmax [3] [ng/mL]	Cmax [4] [ng/mL]	Cmax [5] [ng/mL]	bioavailability [6] [%]	bioavailability [7] [%]	Tmax [8] [min]	Tmax [9] [min]	Tmax [10] [min]	half-life [11] [min]	half-life [12] [min]	half-life [13] [min]	Ki (Procathepsin L)	ED50 (Cricetinae gen. sp. [14]) [mg/kg]	ED50 (Cricetinae gen. sp. [15]) [mg/kg]	Ki (Kallikrein-1)	Ki (Monoamine oxidase)	Ki (Papain)	Ki (Plasma kallikrein)	other results
COC(=O)N[C@H](C(=O)N1CCC[C@H]1C(=O)N[C@H](C(=O)C(F)(F)F)C(C)C)C(C)C (Moc-Val-Pro-Val-CF3)	9370	2890	5440	1460	3690	75	84	19.8	15	30	48.6	120	78	No inhibition	0.51	2	No inhibition	No inhibition	No inhibition	No inhibition	inhibition in vivo at 10 mg/kg (Cricetinae gen. sp. [16]; Cricetinae gen. sp., po): 92%; AUC [17]: 6540 ng·h/mL; Ki (Prothrombin): No inhibition
COc1ccc(C(=O)N[C@H](C(=O)N2CCC[C@H]2C(=O)N[C@H](C(=O)C(F)(F)F)C(C)C)C(C)C)cc1 (stereo in doubt; 1k)	3180	1360	382	373	972	26	82	30	30	15	120	72	49.2	No inhibition	0.59	4.9	No inhibition	No inhibition	No inhibition	No inhibition	Inhibition (Cricetinae gen. sp. [16]; 10 mg/kg): 84%; AUC [17]: 1700 ng·h/mL; Ki (Prothrombin): No inhibition
